Experimental data reported in PMC10258805, “Nonpeptidic Oxazole-Based Prolyl Oligopeptidase Ligands with Disease-Modifying Effects on α-Synuclein Mouse Models of Parkinson’s Disease” (Journal of Medicinal Chemistry, 2023).
Like-named read-outs stand apart in the source and are kept apart here.

Key:
[1] = test system: pPP2Ac and PP2Ac in mouse brain; assay: PP2A markers in mouse brain (Western blot); type: in vivo; conditions: 10 mg/kg i.p., 45 min after injection
[2] = test system: AAV2-CBA-αSyn-injected mice; assay: Cylinder test in AAV-αSyn PD mouse model; conditions: 10 mg/kg/day minipump, after 2 weeks of treatment (6-week time point), vs vehicle-treated AAV-αSyn mice
[3] = test system: oligomeric αSyn in AAV-αSyn-injected mice; assay: Oligomer-specific αSyn immunoreactivity (OD) in AAV-αSyn PD mouse model; conditions: 10 mg/kg/day minipump, 4 weeks
[4] = test system: LC3BII in HEK-293 cells; assay: Autophagy marker LC3BII assay (Western blot); type: cell-based, human; conditions: HEK-293, 10 μM
[5] = test system: pPP2Ac and PP2Ac in HEK-293 cells; assay: PP2A marker assay (Western blot); type: cell-based, human; conditions: HEK-293, 10 μM, 4 h
[6] = biological target: T1, recombinant porcine PREP (Sus scrofa, UniProt P23687); assay: PREP activity assay (inhibition of proteolytic activity); type: biochemical
T1 construct: made in house
T1 sequence (P23687 whole entry): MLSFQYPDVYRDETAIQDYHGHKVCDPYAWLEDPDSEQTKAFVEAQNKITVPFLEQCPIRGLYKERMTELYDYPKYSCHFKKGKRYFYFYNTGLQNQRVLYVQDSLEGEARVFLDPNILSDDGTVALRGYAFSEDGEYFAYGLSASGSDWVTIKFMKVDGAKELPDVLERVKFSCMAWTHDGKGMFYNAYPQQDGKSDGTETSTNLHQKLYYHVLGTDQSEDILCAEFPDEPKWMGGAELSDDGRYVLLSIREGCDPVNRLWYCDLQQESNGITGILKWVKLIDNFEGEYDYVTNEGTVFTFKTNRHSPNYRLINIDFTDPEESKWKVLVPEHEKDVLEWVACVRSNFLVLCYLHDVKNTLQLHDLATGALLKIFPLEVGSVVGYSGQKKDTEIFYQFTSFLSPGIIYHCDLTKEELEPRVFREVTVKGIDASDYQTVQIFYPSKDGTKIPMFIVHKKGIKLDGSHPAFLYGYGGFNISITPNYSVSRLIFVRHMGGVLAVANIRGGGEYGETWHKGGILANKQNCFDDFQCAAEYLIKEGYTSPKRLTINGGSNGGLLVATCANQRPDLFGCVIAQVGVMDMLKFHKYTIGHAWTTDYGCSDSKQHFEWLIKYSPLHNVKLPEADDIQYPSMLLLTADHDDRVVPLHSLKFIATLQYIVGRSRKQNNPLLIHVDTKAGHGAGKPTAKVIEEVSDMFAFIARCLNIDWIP

[7] = test system: αSyn dimerization in Neuro2A (N2A) cells; assay: αSyn-dimerization assay (split Gaussia luciferase PCA); conditions: for activity at 10 µM: Mus musculus, N2a
[8] = test system: ROS production in SH-SY5Y cells; assay: ROS detection assay under oxidative stress; conditions: Homo sapiens, 3 h
[9] = test system: HEK-293 cells stably expressing GFP-LC3B; assay: Autophagic flux (GFP-LC3B reporter cells); conditions: for activity at 10 µM: Homo sapiens, HEK293, 24 h
[10] = biological target: T2, PREP in mouse brain homogenate (Mus musculus, UniProt Q9QUR6); assay: PREP inhibition measured with mouse brain homogenate; type: biochemical
T2 construct: from tissue; host or cells: mouse brain homogenate
T2 sequence (Q9QUR6 whole entry): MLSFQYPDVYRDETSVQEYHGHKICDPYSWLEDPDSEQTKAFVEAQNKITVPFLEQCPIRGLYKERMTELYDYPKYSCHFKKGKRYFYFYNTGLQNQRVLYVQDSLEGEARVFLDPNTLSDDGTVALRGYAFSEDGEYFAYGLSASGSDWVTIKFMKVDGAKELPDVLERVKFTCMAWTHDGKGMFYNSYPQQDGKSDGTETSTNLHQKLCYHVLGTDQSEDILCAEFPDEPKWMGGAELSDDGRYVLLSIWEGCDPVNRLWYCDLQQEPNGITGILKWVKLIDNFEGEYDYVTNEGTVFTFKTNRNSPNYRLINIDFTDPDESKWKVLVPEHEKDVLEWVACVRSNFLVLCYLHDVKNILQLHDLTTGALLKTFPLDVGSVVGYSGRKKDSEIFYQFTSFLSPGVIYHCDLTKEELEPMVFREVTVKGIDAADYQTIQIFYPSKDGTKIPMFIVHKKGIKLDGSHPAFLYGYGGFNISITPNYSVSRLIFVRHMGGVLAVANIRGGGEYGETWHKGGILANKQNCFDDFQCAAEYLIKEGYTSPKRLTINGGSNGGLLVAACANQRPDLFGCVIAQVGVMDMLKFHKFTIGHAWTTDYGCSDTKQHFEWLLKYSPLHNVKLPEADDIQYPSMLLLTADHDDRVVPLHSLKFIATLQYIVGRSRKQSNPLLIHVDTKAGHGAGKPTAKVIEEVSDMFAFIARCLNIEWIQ

[11] = Stability studies (NMR, MS, polarimetry, long-term monitoring); conditions: NMR samples in solution, 2-4 days at room temperature; UPLC-MS two or more weeks after isolation
[12] = Suc-Gly-Pro-AMC as substrate, 95% CI in brackets, read-out: IC50 (nM) (95% CI)
[13] = read-out: aSyn dimerization at 10 uM (%)
[14] = read-out: αSyn dimer. at 10 μM (%)
[15] = read-out: ROS production, % of the control
[16] = read-out: Autophagy at 10 uM (%)
[17] = read-out: autophagy at 10 μM (%)
[18] = read-out: GFP signal of the DMSO control (autophagic flux)
[19] = read-out: luminescence signal compared to the DMSO control (αSyn dimerization)
[20] = supplementary CSV, read-out: IC50

Row | Compound | IC50 [6, 12] [nM] | activity at 10 µM [7, 13] [%] | activity at 10 µM [7, 14] [%] | activity at 10 µM ([8]; read-out: ROS at 10 uM (%)) [%] | activity at 10 µM ([8]; read-out: ROS at 10 μM (%)) [%] | activity at 10 µM [8, 15] [%] | activity at 10 µM [9, 16] [%] | activity at 10 µM [9, 17] [%] | further results
1 | N#C[C@@H]1CCCN1C(=O)[C@@H]1CCCN1C(=O)CCCc1ccccc1 [KYP-2047, reference compound] | – | – | – | – | – | – | – | – | inactive pPP2Ac levels in mouse brain (in words) [1]: decreased inactive pPP2Ac levels, but this was not significant; levels of PP2Ac in mouse brain (in words) [1]: significantly increased the levels of PP2Ac; use of the ipsilateral forepaw in the cylinder test (in words) [2]: significantly decreased their use of the ipsilateral forepaw; OD of oligomeric αSyn in the SNpc (in words) ([3]; vs vehicle-treated group): did not significantly reduce; OD of oligomer-specific αSyn in the STR (in words) ([3]; vs vehicle-treated mice): decreased the OD of oligomer-specific αSyn; LC3BII levels (in words) ([4]; 4 h): significant increase in LC3BII levels; LC3BII levels (in words) ([4]; 24 h): significantly elevated LC3BII levels; total PP2Ac levels (in words) [5]: elevated total PP2Ac levels
2 | Cc1nc(CCOc2ccccc2)oc1N1CCC[C@H]1C#N [compound 17, (S)-1-(4-Methyl-2-(2-phenoxyethyl)oxazol-5-yl)pyrrolidine-2-carbonitrile] | 1160 | 120 | 120 ± 8 | 70 | 70 ± 8 | 70 | 94 | 94 ± 6 | –
3 | COc1ccc(CCCc2nc(C)c(N3CCC[C@H]3C#N)o2)cc1 [compound 18, (S)-1-(2-(3-(4-Methoxyphenyl)propyl)-4-methyloxazol-5-yl)pyrrolidine-2-carbonitrile] | 65 | 100 | 100 ± 5 | 86 | 86 ± 6 | < 88 | 98 | 98 ± 1 | –
4 | COc1ccc(CCCc2nc(C)c(N3CCC[C@H]3C#N)o2)cc1OC [compound 19, (S)-1-(2-(3-(3,4-Dimethoxyphenyl)propyl)-4-methyloxazol-5-yl)pyrrolidine-2-carbonitrile] | 115 | 98 | 98 ± 17 | 70 | 70 ± 9 | 70 | 93 | 93 ± 2 | –
5 | COc1cc(CCc2nc(C)c(N3CCC[C@H]3C#N)o2)cc(OC)c1 [compound 20, (S)-1-(2-(3,5-Dimethoxyphenethyl)-4-methyloxazol-5-yl)pyrrolidine-2-carbonitrile] | 1290 | 100 | 100 ± 9 | 76 | 76 ± 8 | < 88 | 89 | 89 ± 6 | –
6 | Cc1nc(CCCc2cccs2)oc1N1CCC[C@H]1C#N [compound 21, (S)-1-(4-Methyl-2-(3-(2-thienyl)propyl)oxazol-5-yl)pyrrolidine-2-carbonitrile] | 18 | 101 | 101 ± 8 | 91 | 91 ± 6 | – | 72 | 72 ± 3 | GFP signal compared to the DMSO control (in words) ([9]; 10 μM, one-way ANOVA with Dunnett's post-test): significantly decreased the signal; activity at 10 µM [9, 18]: ≤ 88%
7 | Cc1nc(CCc2c[nH]c3ccccc23)oc1N1CCC[C@H]1C#N [compound 22, (S)-1-(2-(2-(1H-Indol-3-yl)ethyl)-4-methyloxazol-5-yl)pyrrolidine-2-carbonitrile] | 890 | 72 | 72 ± 2 | 82 | 82 ± 11 | < 88 | 97 | 97 ± 3 | activity at 10 µM [7, 19]: ≤ 75%
8 | Cc1nc(CCc2cn(C(=O)C(F)(F)F)c3ccccc23)oc1N1CCC[C@H]1C#N [compound 23, (S)-1-(4-Methyl-2-(2-(1-(2,2,2-trifluoroacetyl)-1H-indol-3-yl)ethyl)oxazol-5-yl)pyrrolidine-2-carbonitrile] | 120 | 87 | 87 ± 11 | 84 | 84 ± 7 | < 88 | 94 | 94 ± 3 | effect on αSyn dimerization (in words) ([7]; 10 μM, N2A cells): comparable effect as KYP-2047
9 | Cc1nc(CCC(=O)N2CCCCCC2)oc1N1CCC[C@H]1C#N [compound 24, (S)-1-(2-(3-(Azepan-1-yl)-3-oxopropyl)-4-methyloxazol-5-yl)pyrrolidine-2-carbonitrile] | 654 | 117 | 117 ± 9 | 90 | 90 ± 5 | – | 84 | 84 ± 5 | activity at 10 µM [9, 18]: ≤ 88%
10 | Cc1nc(C(=O)CCc2ccccc2)oc1N1CCCC1 [compound 25, 1-(4-Methyl-5-(pyrrolidin-1-yl)oxazol-2-yl)-3-phenylpropan-1-one] | – | 110 | 110 ± 6 | 105 | 105 ± 8 | – | 95 | 95 ± 10 | inhibitory activity (in words) ([10]; Table 2: mouse brain homogenate): very weak inhibitor; IC50 ([10]; measured with mouse brain homogenate, read-out: IC50 (nM) (95% CI)): 90000 nM
11 | N#Cc1nc(CCCc2ccccc2)oc1N1CCC[C@H]1C#N [compound 28, (S)-5-(2-Cyanopyrrolidin-1-yl)-2-(3-phenylpropyl)oxazole-4-carbonitrile] | – | 109 | 109 ± 5 | 93 | 93 ± 11 | – | 97 | 97 ± 5 | inhibitory activity (in words) [6]: very weak inhibitors; IC50 [6, 20]: 76600 nM
12 | c1ccc(CCCc2ncc(-c3ccccc3)o2)cc1 [compound 29, 5-Phenyl-2-(3-phenylpropyl)oxazole] | – | 90 | 90 ± 6 | 93 | 93 ± 11 | – | 90 | 90 ± 4 | inhibitory activity (in words) [6]: strongly reduced inhibitory activities; IC50 [6, 20]: 91600 nM
13 | c1ccc(CCCc2ncc(-c3cccs3)o2)cc1 [compound 30, 2-(3-Phenylpropyl)-5-(2-thienyl)oxazole] | – | 86 | 86 ± 8 | 96 | 96 ± 9 | – | 98 | 98 ± 10 | inhibitory activity (in words) [6]: strongly reduced inhibitory activities; IC50 [6, 20]: 37300 nM; activity at 10 µM [7, 19]: 80 to 85%
14 | Cc1oc(CCCc2ccccc2)nc1C(=O)N1CCC[C@H]1C#N [compound 33, (S)-1-(5-Methyl-2-(3-phenylpropyl)oxazole-4-carbonyl)pyrrolidine-2-carbonitrile] | – | 109 | 109 ± 6 | 98 | 98 ± 6 | – | 97 | 97 ± 5 | inhibitory activity (in words) [6]: very low inhibitory activities; IC50 [6, 20]: 12900 nM
15 | Cc1nc(CCCc2ccccn2)oc1N1CCCC1C#N (stereo not shown) [compound 69] | – | – | – | – | – | – | – | – | long-term stability (in words) [11]: lowered the stability
16 | Cc1nc(CCc2cccnc2)oc1N1CCCC1C#N (stereo not shown) [compound 70] | – | – | – | – | – | – | – | – | long-term stability (in words) [11]: lowered the stability
